Tests used:
[1] = target: Syk (356-635 amino acids) catalytic domain (Homo sapiens (Human), UniProt P43405); test: Inhibition of enzymatic Syk kinase activity (radiometric); format: biochemical; conditions: read-out: IC50 Syk
In short: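 Human Syk (356-635) kinase domain (0.035–7.5 ng/reaction) preincubated with compound 30 minutes at room temperature, then reacted with pG4T substrate, 100 μM ATP (stock) and γ-32P-ATP for 10 minutes at 30° C. Reaction stopped with HCl/ATP, spotted on P81 paper, washed and counted by scintillation. Percent inhibition versus no-compound counts.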

JAK2 = JAK2 (Homo sapiens (Human), UniProt O60674); test: Inhibition of enzymatic JAK2 kinase activity (TR-FRET); format: biochemical; conditions: read-out: IC50 JAK
Sequence of JAK2 (O60674 808-1132): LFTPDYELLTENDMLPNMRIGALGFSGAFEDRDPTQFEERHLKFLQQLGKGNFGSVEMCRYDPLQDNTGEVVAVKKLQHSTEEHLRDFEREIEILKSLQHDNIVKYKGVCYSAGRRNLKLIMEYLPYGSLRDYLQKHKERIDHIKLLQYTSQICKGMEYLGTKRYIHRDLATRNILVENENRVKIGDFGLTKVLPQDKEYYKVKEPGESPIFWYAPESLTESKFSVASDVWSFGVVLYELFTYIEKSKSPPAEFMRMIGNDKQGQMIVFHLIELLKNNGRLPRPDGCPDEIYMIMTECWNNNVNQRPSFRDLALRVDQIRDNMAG
In short: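 Enzyme preincubated with compound 30 min at RT, then Ulight-poly-GT substrate and ATP added for 60 min at RT. EDTA stop, Eu-antiphosphotyrosine antibody; TR-FRET ratio 665/615 nm (ex 340 nm), blank-corrected; % inhibition versus positive control.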

| IC50 [1] [nM] | IC50 (JAK2) [nM] | Compound |
| --- | --- | --- |
| < 50 | < 50 | CN1CCN(c2ccc(Nc3nc(N4CCCCCC4)nc4cn[nH]c(=O)c34)cn2)CC1 [Example 242, 2-(azepan-1-yl)-4-((6-(4-methylpiperazin-1-yl)pyridin-3-yl)amino)pyrimido[4,5-d]pyridazin-5(6H)-one] |
| < 10 | < 10 | N#CCC1CCN(c2nc(Nc3ccc(N4CCC(Cc5nn[nH]n5)CC4)cc3)c3c(=O)[nH]ncc3n2)CC1 [Example 246, 2-(1-(4-((4-(4-((2H-tetrazol-5-yl)methyl)piperidin-1-yl)phenyl)amino)-5-oxo-5,6-dihydropyrimido[4,5-d]pyridazin-2-yl)piperidin-4-yl)acetonitrile] |
| < 50 | < 10 | N#CCC1CCN(c2nc(Nc3ccc(N4CCCC(CC(=O)O)C4)cc3)c3c(=O)[nH]ncc3n2)CC1 (centres unmarked) [Example 250, 2-(1-(4-((2-(4-(cyanomethyl)piperidin-1-yl)-5-oxo-5,6-dihydropyrimido[4,5-d]pyridazin-4-yl)amino)phenyl)piperidin-3-yl)acetic acid] |
| < 50 | < 10 | N#CCC1CCN(c2nc(Nc3ccc(N4CCC(Cc5nn[nH]n5)CC4)nc3)c3c(=O)[nH]ncc3n2)CC1 [Example 253, 2-(1-(4-((6-(4-((2H-tetrazol-5-yl)methyl)piperidin-1-yl)pyridin-3-yl)amino)-5-oxo-5,6-dihydropyrimido[4,5-d]pyridazin-2-yl)piperidin-4-yl) acetonitrile] |
| < 50 | < 50 | O=c1[nH]ncc2nc(N3CCCCCC3)nc(Nc3ccc(N4CCN(CCCO)CC4)cc3)c12 [Example 260, 2-(azepan-1-yl)-4-((4-(4-(3-hydroxypropyl)piperazin-1-yl)phenyl)amino)pyrimido[4,5-d]pyridazin-5(6H)-one] |
| < 50 | < 10 | N#CCC1CCN(c2nc(Nc3ccc(OC4CCN(CC(=O)O)CC4)cc3)c3c(=O)[nH]ncc3n2)CC1 [Example 262, 2-(4-(4-((2-(4-(cyanomethyl)piperidin-1-yl)-5-oxo-5,6-dihydropyrimido[4,5-d]pyridazin-4-yl)amino)phenoxy)piperidin-1-yl)acetic acid] |
| < 10 | < 10 | O=c1[nH]ncc2nc(N3CCCCCC3)nc(Nc3ccc(N4CCCN(CCO)CC4)cc3)c12 [Example 263, 2-(azepan-1-yl)-4-((4-(4-(2-hydroxyethyl)-1,4-diazepan-1-yl)phenyl)amino) pyrimido[4,5-d]pyridazin-5(6H)-one] |
| < 50 | < 10 | O=c1[nH]ncc2nc(N3CCCCCC3)nc(Nc3ccc(N4CCCC(CCO)C4)cc3)c12 (centres unmarked) [Example 272, 2-(azepan-1-yl)-4-((4-(3-(2-hydroxyethyl)piperidin-1-yl)phenyl)amino) pyrimido[4,5-d]pyridazin-5(6H)-one] |
| < 50 | < 10 | O=c1[nH]ncc2nc(N3CCCCCC3)nc(Nc3ccc(N4CCCC(O)C4)cc3)c12 (centres unmarked) [Example 281, 2-(azepan-1-yl)-4-((4-(3-hydroxypiperidin-1-yl)phenyl)amino) pyrimido[4,5-d]pyridazin-5(6H)-one] |
| < 50 | < 10 | N#CCC1CCN(c2nc(Nc3ccc(N4CCCC(O)C4)cc3)c3c(=O)[nH]ncc3n2)CC1 (centres unmarked) [Example 282, 2-(1-(4-((4-(3-hydroxypiperidin-1-yl)phenyl)amino)-5-oxo-5,6-dihydropyrimido[4,5-d]pyridazin-2-yl)piperidin-4-yl)acetonitrile] |
| < 50 | < 50 | N#CCC1CCN(c2nc(Nc3ccc(N4CCCC(CCO)C4)cc3)c3c(=O)[nH]ncc3n2)CC1 (centres unmarked) [Example 286, 2-(1-(4-((4-(3-(2-hydroxyethyl)piperidin-1-yl)phenyl)amino)-5-oxo-5,6-dihydropyrimido[4,5-d]pyridazin-2-yl)piperidin-4-yl)acetonitrile] |
| < 50 | < 50 | COC1CCN(c2ccc(Nc3nc(N4CCCCCC4)nc4cn[nH]c(=O)c34)cc2)CC1 [Example 288, 2-(azepan-1-yl)-4-((4-(4-methoxypiperidin-1-yl)phenyl)amino) pyrimido[4,5-d]pyridazin-5(6H)-one] |
| < 50 | < 50 | N#CCC1CCN(c2nc(Nc3ccc(OC4CCN(CCO)CC4)cc3)c3c(=O)[nH]ncc3n2)CC1 [Example 291, 2-(1-(4-((4-((1-(2-hydroxyethyl)piperidin-4-yl)oxy)phenyl)amino)-5-oxo-5,6-dihydropyrimido[4,5-d]pyridazin-2-yl)piperidin-4-yl)acetonitrile] |
| < 100 | < 50 | N#CCC1CCN(c2nc(Nc3ccc(OCCO)cc3)c3c(=O)[nH]ncc3n2)CC1 [Example 293, 2-(1-(4-((4-(2-hydroxyethoxy)phenyl)amino)-5-oxo-5,6-dihydropyrimido[4,5-d]pyridazin-2-yl)piperidin-4-yl) acetonitrile] |
| < 50 | < 50 | O=c1[nH]ncc2nc(N3CCCCCC3)nc(Nc3ccc(OCCO)cc3)c12 [Example 294, 2-(azepan-1-yl)-4-((4-(2-hydroxyethoxy)phenyl)amino)pyrimido[4,5-d]pyridazin-5(6H)-one] |
| < 50 | < 10 | O=c1[nH]ncc2nc(N3CCCCCC3)nc(Nc3ccc(CCCO)cc3)c12 [Example 308, 2-(azepan-1-yl)-4-((4-(3-hydroxypropyl)phenyl)amino)pyrimido[4,5-d]pyridazin-5(6H)-one] |

The remaining lines, values behind:

| Compound | IC50 [1] [nM] | IC50 (JAK2) [nM] |
| --- | --- | --- |
| CN1CCN(c2ccc(Nc3nc(N4CCC(CC#N)CC4)nc4cn[nH]c(=O)c34)cn2)CC1 [Example 243, 2-(1-(4-((6-(4-methylpiperazin-1-yl)pyridin-3-yl)amino)-5-oxo-5,6-dihydropyrimido[4,5-d]pyridazin-2-yl)piperidin-4-yl)acetonitrile] | < 50 | < 50 |
| N#CCC1CCN(c2nc(Nc3ccc(-c4nn[nH]n4)cc3)c3c(=O)[nH]ncc3n2)CC1 [Example 245, 2-(1-(4-((4-(2H-tetrazol-5-yl)phenyl)amino)-5-oxo-5,6-dihydropyrimido[4,5-d]pyridazin-2-yl)piperidin-4-yl)acetonitrile] | < 50 | < 50 |
| CN1CCN(c2ccc(Nc3nc(N4CCCCCC4)nc4cn[nH]c(=O)c34)cc2)CC1 [Example 247, 2-(azepan-1-yl)-4-((4-(4-methylpiperazin-1-yl)phenyl)amino)pyrimido[4,5-d]pyridazin-5(6H)-one] | < 10 | < 10 |
| O=c1[nH]ncc2nc(N3CCCCCC3)nc(Nc3ccc(N4CCC(Cc5nn[nH]n5)CC4)nc3)c12 [Example 252, 4-((6-(4-((2H-tetrazol-5-yl)methyl)piperidin-1-yl)pyridin-3-yl)amino)-2-(azepan-1-yl)pyrimido[4,5-d]pyridazin-5(6H)-one] | < 50 | < 10 |
| COCCN1CCN(c2ccc(Nc3nc(N4CCCCCC4)nc4cn[nH]c(=O)c34)cc2)CC1 [Example 255, 2-(azepan-1-yl)-4-((4-(4-(2-methoxyethyl)piperazin-1-yl)phenyl)amino) pyrimido[4,5-d]pyridazin-5(6H)-one] | < 50 | < 10 |
| CCN1CCN(C(=O)COc2ccc(Nc3nc(N4CCCCCC4)nc4cn[nH]c(=O)c34)cc2)CC1 [Example 269, 2-(azepan-1-yl)-4-((4-(2-(4-ethylpiperazin-1-yl)-2-oxoethoxy)phenyl)amino)pyrimido[4,5-d]pyridazin-5(6H)-one] | < 50 | < 50 |
| CCN1CCN(C(=O)COc2ccc(Nc3nc(N4CCC(CC#N)CC4)nc4cn[nH]c(=O)c34)cc2)CC1 [Example 270, 2-(1-(4-((4-(2-(4-ethylpiperazin-1-yl)-2-oxoethoxy)phenyl)amino)-5-oxo-5,6-dihydropyrimido[4,5-d]pyridazin-2-yl)piperidin-4-yl)acetonitrile] | < 50 | < 50 |
| CN1CCN(C(=O)COc2ccc(Nc3nc(N4CCC(CC#N)CC4)nc4cn[nH]c(=O)c34)cc2)CC1 [Example 271, 2-(1-(4-((4-(2-(4-methylpiperazin-1-yl)-2-oxoethoxy)phenyl)amino)-5-oxo-5,6-dihydropyrimido[4,5-d]pyridazin-2-yl)piperidin-4-yl)acetonitrile] | < 10 | < 50 |
| O=c1[nH]ncc2nc(N3CCCCCC3)nc(Nc3ccc(N4CCCC(CO)C4)cc3)c12 (centres unmarked) [Example 285, 2-(azepan-1-yl)-4-((4-(3-(hydroxymethyl)piperidin-1-yl)phenyl)amino) pyrimido[4,5-d]pyridazin-5(6H)-one] | < 50 | < 50 |
| O=c1[nH]ncc2nc(N3CCCCCC3)nc(Nc3ccc(N4CCC(F)CC4)cc3)c12 [Example 289, 2-(azepan-1-yl)-4-((4-(4-fluoropiperidin-1-yl)phenyl)amino)pyrimido[4,5-d]pyridazin-5(6H)-one] | < 50 | < 10 |
| N#CCC1CCN(c2nc(Nc3ccc(OCCCO)cc3)c3c(=O)[nH]ncc3n2)CC1 [Example 295, 2-(1-(4-((4-(3-hydroxypropoxy)phenyl)amino)-5-oxo-5,6-dihydropyrimido[4,5-d]pyridazin-2-yl)piperidin-4-yl) acetonitrile] | < 50 | < 50 |
| N#CCC1CCN(c2nc(Nc3ccc(N4CCC(CCF)CC4)cc3)c3c(=O)[nH]ncc3n2)CC1 [Example 299, 2-(1-(4-((4-(4-(2-fluoroethyl)piperidin-1-yl)phenyl)amino)-5-oxo-5,6-dihydropyrimido[4,5-d]pyridazin-2-yl)piperidin-4-yl)acetonitrile] | < 50 | < 50 |

Source: patent publication US10183944B2 (Asana Biosciences, LLC, priority 2011, dated 2019)
